From patent US10071100B2, “Therapeutic nanoparticles comprising a therapeutic agent and methods of making and using the same” (PFIZER INC., priority 2014, dated 2018) come the findings set out here.

Each structure is given as a SMILES string.

One data set is described as follows: physchem. The data set is classed as physicochemical. From the text: It is described in U.S. Pat. No. 8,039,469, the contents of which are incorporated by reference. […] As indicated above, it is a base. It is a protonatable nitrogen-containing therapeutic agent. As used herein, a “protonatable nitrogen-containing therapeutic agent” includes any pharmaceutically active agent that contains at least one nitrogen-containing functional group that is capable of being protonated. In other words, the therapeutic agent has a nitrogen atom thereon which has a lone pair of electrons that could potentially accept a proton. The pKa refers to the acid dissociation constant on a logarithmic scale of the corresponding protonated form of the therapeutic agent. In other words, if a proton (H+) were present at the nitrogen atoms where there is an arrow indicated, the therapeutic agent would have the pKa indicated below: […]

A short description of data set [1]: pKa (acid dissociation constant). The data set is classed as physicochemical. As to conditions: protonated form of the therapeutic agent; read-out: first pKa. From the text:
It is described in U.S. Pat. No. 8,039,469, the contents of which are incorporated by reference. […] As indicated above, it is a base. It is a protonatable nitrogen-containing therapeutic agent. As used herein, a “protonatable nitrogen-containing therapeutic agent” includes any pharmaceutically active agent that contains at least one nitrogen-containing functional group that is capable of being protonated. In other words, the therapeutic agent has a nitrogen atom thereon which has a lone pair of electrons that could potentially accept a proton. The pKa refers to the acid dissociation constant on a logarithmic scale of the corresponding protonated form of the therapeutic agent. In other words, if a proton (H+) were present at the nitrogen atoms where there is an arrow indicated, the therapeutic agent would have the pKa indicated below:
The pKa information for the most basic nitrogen (bottom) and a less basic but still protonatable nitrogen (upper) are shown above. ACD is a calculated number using standard techniques known in the art, such as described in Liao C Z, Nicklaus M C. Comparison of nine programs predicting pK(a) values of pharmaceutical substances. J. Chem. Inform. Model. 49(12):2801-2812, 2009. It has to be understood that the pKa of the therapeutic agent refers to the protonated form thereof. […]

Data set [2] is described as follows: pharmacokinetics of nanoparticles in Wistar Han rats. The data set is classed as in vivo. The note with it: rat; male Wistar Han rats, intravenous 1 mg/kg bolus, plasma. On the procedure: The protocol was as follows: Male Wistar Han rats (approximately six weeks in age; n=4/group) with indwelling jugular vein cannulae were dosed intravenously with a 1 mg/kg bolus of Formulation A, B, and C nanoparticles or Formulation A, B, and C nanoparticles diluted in 0.9% saline. At various times after dosing, serial blood collections were made from the jugular vein cannulae and plasma concentrations of therapeutic agent were quantitated by LC-MS/MS.

Usually logD stands for the decadic logarithm of the distribution of all forms, ionised or not, between an organic phase and buffer at a given pH. Low values mean a more hydrophilic compound, high ones a more lipophilic compound. In general, pKa refers to the negative logarithm of the acid dissociation constant. As usually defined, the AUC is concentration integrated over time. The low end stands for low exposure, the high end for high exposure. By half-life is commonly meant the time in which the quantity being followed falls by half. On to `CN(C)C1CCN(C(=O)c2ccc(NC(=O)Nc3ccc(-c4nc(N5CCOCC5)nc(N5CCOCC5)n4)cc3)cc2)CC1` [therapeutic agent, 1-(4-{[4-(dimethylamino)piperidin-1-yl]carbonyl}phenyl)-3-[4-(4,6-dimorpholin-4-yl-1,3,5-triazin-2-yl)phenyl]urea], for which the pH-dependent lipophilicity (logD) came to 0.212 in the data set “physchem” (pH 6.5) and 1.08 in “physchem” (pH 7.4). Besides, in data set [1], the pKa is about 6.7. For the same molecule, the AUC in data set [2] came to 920 ng·h/mL. This molecule gave a half-life in data set [2] of 792 min.
